The assay has as its target T1, TrkA(h) (Homo sapiens, UniProt P04629).
T1 construct: purchased Millipore (KinaseProfiler Service)
Briefly: KinaseProfiler (Millipore) radiometric kinase assay, TrkA(h). In kind it is biochemical. Particulars: compound concentration 1 μM. The protocol: The KinaseProfiler™ Service Assay Protocols (Millipore) were used to test the kinase inhibiting activity of the novel compounds from this invention. To do this, the buffer composition was as follows: 20 mM MOPS, 1 mM EDTA, 0.01% Brij-35, 5% Glycerol, 0.1% β-mercaptoethanol, 1 mg/mL BSA. Test compounds were initially dissolved in DMSO at the desired concentration, then serially diluted into the kinase assay buffer. In a final reaction volume of 25 μL, TrkA(h) (5-10 mU) is incubated with 8 mM MOPS pH 7.0, 0.2 mM EDTA, 200 μM LRRASLG (Kemptide), 10 mM MgAcetate and [γ^33P-ATP]. The reaction was initiated by the addition of the MgATP mix. After incubation for 40 minutes at room temperature, the reaction was stopped by addition of 5 μL of a 3% phosphoric acid solution. 10 μL of the reaction was then spotted onto a P30 filtermat and washed three times for 5 minutes in 50 mM phosphoric acid and once in methanol prior to drying and scintillation counting. Wells containing substrate but no kinase and wells containing a phosphopeptide control were used to set 0% and 100% phosphorylation value, respectively.

T1 sequence (P04629 33-796): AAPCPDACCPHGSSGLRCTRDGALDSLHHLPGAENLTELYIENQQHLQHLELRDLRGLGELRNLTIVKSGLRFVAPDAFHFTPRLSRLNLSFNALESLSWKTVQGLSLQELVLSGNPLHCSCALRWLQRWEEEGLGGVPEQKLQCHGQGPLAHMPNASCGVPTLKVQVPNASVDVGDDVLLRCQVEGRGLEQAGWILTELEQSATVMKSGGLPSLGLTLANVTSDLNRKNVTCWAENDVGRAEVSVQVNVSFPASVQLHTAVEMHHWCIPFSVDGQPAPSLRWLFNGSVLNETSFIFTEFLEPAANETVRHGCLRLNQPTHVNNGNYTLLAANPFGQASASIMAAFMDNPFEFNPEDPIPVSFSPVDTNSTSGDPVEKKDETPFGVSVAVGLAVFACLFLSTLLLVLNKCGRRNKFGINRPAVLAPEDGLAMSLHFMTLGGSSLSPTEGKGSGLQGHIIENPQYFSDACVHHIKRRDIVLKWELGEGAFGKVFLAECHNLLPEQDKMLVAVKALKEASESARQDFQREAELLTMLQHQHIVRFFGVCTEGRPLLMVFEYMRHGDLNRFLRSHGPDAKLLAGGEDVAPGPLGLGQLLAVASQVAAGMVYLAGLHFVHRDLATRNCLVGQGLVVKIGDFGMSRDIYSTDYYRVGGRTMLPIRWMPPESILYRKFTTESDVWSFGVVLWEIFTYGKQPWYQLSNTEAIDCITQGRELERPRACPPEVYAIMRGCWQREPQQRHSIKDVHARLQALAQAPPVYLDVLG

For orientation: inhibition means the relative decrease from the control value, in per cent. For the compound `CC(Nc1cc(Nc2cc(C3CC3)[nH]n2)ncn1)c1c(F)cccc1F` (single isomer, unassigned) [Example 30], the inhibition at 1 µM worked out at 100%.
Still for that read-out and setting: for `C[C@H](Nc1cc(Nc2cc(C3CC3)[nH]n2)ncn1)c1ccc(F)cc1` [Example 23, (S)—N4-(5-cyclopropyl-1H-pyrazol-3-yl)-N6-(1-(4-fluorophenyl)ethyl)pyrimidine-4,6-diamine] the value was 99%.
Same read-out and setting: as for `Cc1c(Nc2cc(C3CC3)[nH]n2)ncnc1N[C@@H](C)c1ccc(F)cc1` [Example 24], the figure is 31%; as for `COc1c(Nc2cc(C3CC3)[nH]n2)ncnc1N[C@@H](C)c1ccc(F)cc1` [Example 25, (S)—N4-(5-cyclopropyl-1H-pyrazol-3-yl)-N6-(1-(4-fluorophenyl)ethyl)-5-methoxypyrimidine-4,6-diamine], 0%; as for `C[C@H](Nc1ncnc(Nc2cc(C3CC3)[nH]n2)c1C#N)c1ccc(F)cc1` [Example 26], 49%.
On the same count and under the same terms, as for `C[C@H](Nc1ncnc(Nc2cc(C3CC3)[nH]n2)c1F)c1ccc(F)cc1` [Example 27], the figure is 87%; as for `C[C@H](Nc1ncnc(Nc2cc(C3CC3)[nH]n2)c1Cl)c1ccc(F)cc1` [Example 28, (S)-5-chloro-N4-(5-cyclopropyl-1H-pyrazol-3-yl)-N6-(1-(4-fluorophenyl)ethyl)pyrimidine-4,6-diamine], 56%; as for `CN1CCN(c2ccc(CNc3ncnc(Nc4cc(C5CC5)[nH]n4)c3C#N)cc2)CC1` [Example 29], -5%.
Take `CC(Nc1cc(Nc2cc(C3CC3)n(C(=O)OC(C)(C)C)n2)ncn1)c1c(F)cccc1F` (stereo not drawn) [Example 31]: the inhibition at 1 µM was 99%.
On the same count and under the same terms, for `CC(Nc1cc(Nc2cc(C3CC3)[nH]n2)ncn1)c1ccc(F)cc1F` (stereo not drawn) [Example 32, N4-(5-cyclopropyl-1H-pyrazol-3-yl)-N6-(1-(2,4-difluorophenyl)ethyl)pyrimidine-4,6-diamine] the value was 104%.
Take `C[C@@H](Nc1cc(Nc2cc(C3CC3)[nH]n2)ncn1)c1ccc(F)cc1F` [Example 33]: the inhibition at 1 µM is 60%.
For the compound `C[C@H](Nc1cc(Nc2cc(C3CC3)[nH]n2)ncn1)c1ccc(F)cc1F` [Example 34], the inhibition at 1 µM came to 101%.
The same measure, in the same setting: as for `CC(Nc1cc(Nc2cc(C3CC3)[nH]n2)ncn1)c1cc(F)ccc1F` (stereo not drawn) [Example 35], the figure is 99%; as for `CC(Nc1cc(Nc2cc(C3CC3)[nH]n2)ncn1)c1ccc(F)cc1Cl` (stereo not drawn) [Example 36], 101%.
On the same count and under the same terms, as for `CC(Nc1cc(Nc2cc(C3CC3)[nH]n2)ncn1)c1ccc(F)c(Cl)c1` (stereo not drawn) [Example 37], the figure is 97%.
Still for that read-out and setting: as for `c1ccc(C(CN2CCOCC2)Nc2cc(Nc3cc(C4CC4)[nH]n3)ncn2)cc1` (stereo not drawn) [Example 38], the figure is 71%; as for `CN1CCN(CC(Nc2cc(Nc3cc(C4CC4)[nH]n3)ncn2)c2ccccc2)CC1` (stereo not drawn) [Example 39], 7%.
As for `OCC(Nc1cc(Nc2cc(C3CC3)[nH]n2)ncn1)c1ccc(F)cc1` (stereo not drawn) [Example 40], the inhibition at 1 µM amounted to 101%.
As for `CC(c1cc(F)ccc1F)N(C)c1cc(Nc2cc(C3CC3)[nH]n2)ncn1` (stereo not drawn) [Example 42], the inhibition at 1 µM stood at 95%.
Same read-out and setting: for `CC(Nc1cc(Nc2cc(C3CC3)[nH]n2)ncn1)c1ccc(F)cn1` (stereo not drawn) [Example 43, N4-(5-cyclopropyl-1H-pyrazol-3-yl)-N6-(1-(5-fluoropyridin-2-yl)ethyl)pyrimidine-4,6-diamine] the value was 95%.
Take `CC(Nc1cc(Nc2cc(C3CC3)[nH]n2)ncn1)c1ccc(F)cn1` (stereo not drawn) [Example 44, N4-(5-cyclopropyl-1H-pyrazol-3-yl)-N6-(1-(5-fluoropyridin-2-yl)ethyl)pyrimidine-4,6-diamine]: the “% Inhibition@ 1 μM (TrkA(h))” value came out at 98%.
On the same count and under the same terms, for `CC(Nc1cc(Nc2cc(C3CC3)[nH]n2)ncn1)c1ccc(F)cn1` (stereo not drawn) [Example 45, N4-(5-cyclopropyl-1H-pyrazol-3-yl)-N6-(1-(5-fluoropyridin-2-yl)ethyl)pyrimidine-4,6-diamine] the value was 100%.
The same measure, in the same setting: for `CC(Nc1cc(Nc2cc(C3CC3)[nH]n2)ncn1)c1ccc(F)cn1` (stereo not drawn) [Example 46, N4-(5-cyclopropyl-1H-pyrazol-3-yl)-N6-(1-(5-fluoropyridin-2-yl)ethyl)pyrimidine-4,6-diamine] the value was 98%.
As to `CC(Nc1cc(Nc2cc(C3CC3)n(C)n2)ncn1)c1ccc(F)cc1F` (stereo not drawn) [Example 47], the inhibition at 1 µM worked out at 25%.
On the same count and under the same terms, for `CCn1nc(Nc2cc(NC(C)c3ccc(F)cc3F)ncn2)cc1C1CC1` (stereo not drawn) [Example 48] the value was 10%; for `CC(Nc1cc(Nc2ccn(C3CCOCC3)n2)ncn1)c1ccc(F)cc1F` (stereo not drawn) [Example 49], 5%.
Same read-out and setting: for `Cc1cc(Nc2cc(NC(C)c3ccc(F)cc3F)ncn2)n[nH]1` (stereo not drawn) [Example 50] the value was 99%.
`CCCc1cc(Nc2cc(NC(C)c3ccc(F)cc3F)ncn2)n[nH]1` (stereo not drawn) [Example 51]: the inhibition at 1 µM worked out at 100%.
In the case of `CC(Nc1cc(Nc2cc(C3CC3)[nH]n2)ncn1)c1ccc(F)cn1` (stereo not drawn) [Example 52, N4-(5-cyclopropyl-1H-pyrazol-3-yl)-N6-(1-(5-fluoropyridin-2-yl)ethyl)pyrimidine-4,6-diamine], the “% Inhibition@ 1 μM (TrkA(h))” value was determined as 101%.
Regarding `C[C@H](Nc1cc(Nc2cc(C3CC3)[nH]n2)nc(N)n1)c1ccc(F)cc1F` [Example 53], the inhibition at 1 µM was 100%.
For the compound `C[C@H](Nc1cc(Nc2cc(C3CC3)[nH]n2)ncn1)c1ccc(F)cc1Cl` [Example 54], the inhibition at 1 µM was 100%.
Still for that read-out and setting: for `COCC(Nc1cc(Nc2cc(C3CC3)[nH]n2)ncn1)c1ccccc1` (stereo not drawn) [Example 55] the value was 85%.
Still for that read-out and setting: as for `CN(C)CC(Nc1cc(Nc2cc(C3CC3)[nH]n2)ncn1)c1ccccc1` (stereo not drawn) [Example 56], the figure is 67%.
Turning to `CC(Nc1cc(Nc2cc(C3CC3)[nH]n2)ncn1)c1ccc(F)cn1` (stereo not drawn) [Example 57, N4-(5-cyclopropyl-1H-pyrazol-3-yl)-N6-(1-(5-fluoropyridin-2-yl)ethyl)pyrimidine-4,6-diamine], the “% Inhibition@ 1 μM (TrkA(h))” value is on record as 95%.
`C[C@H](Nc1ncnc(Nc2cc(C3CC3)[nH]n2)n1)c1ccc(F)cc1F` [Example 58]: the inhibition at 1 µM stood at 100%.
Same read-out and setting: as for `C[C@H](Nc1ncnc(Nc2cc(C3CC3)[nH]n2)n1)c1ccc(F)cc1Cl` [Example 59], the figure is 100%.

These data come from patent publication US10800760B2, “Trk inhibition” (NantBio, Inc., priority 2017, dated 2020).
